The values below come from EP3057950B1, “PHENYL LINKED QUINOLINYL MODULATORS OF ROR-GAMMA-T” (Janssen Pharmaceutica NV, priority 2013, dated 2015).

A word on the IC50: it is the point on the concentration scale where inhibition reaches its midpoint. As a reminder, the Kd is a measure of binding affinity in units of concentration. In general, inhibition refers to the change of the read-out against control, counted positive when it falls.

Test [1] addresses T1, wild type human RORγt LBD (Homo sapiens, UniProt P51449).
T1 construct: expressed in transfected cells; host or cells: HEK293T
T1 sequence (P51449 269-508 limits assumed): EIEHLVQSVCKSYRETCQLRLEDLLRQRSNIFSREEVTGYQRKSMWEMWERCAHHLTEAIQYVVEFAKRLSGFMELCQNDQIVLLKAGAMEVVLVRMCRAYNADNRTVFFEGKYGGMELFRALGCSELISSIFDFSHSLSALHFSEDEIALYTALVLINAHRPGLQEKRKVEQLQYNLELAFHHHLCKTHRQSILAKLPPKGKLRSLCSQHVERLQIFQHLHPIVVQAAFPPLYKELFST
The test can be described thus: RORγt Reporter Assay (GAL4-RORγt LBD luciferase in HEK293T cells). It counts as cell-based. Particulars: HEK293T cells; for IC50: compounds for 24 hours, read-out: RORγt reporter Assay, IC50; for inhibition at 6 µM: HEK-293T, read-out: RORγt reporter Assay, % inhibition @ 6 µM, @ 6 µM. Put shortly: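 HEK293T cells transiently co-transfected with GAL4-DBD–human RORγt LBD (or AF2 mutant) and GAL4-responsive firefly luciferase reporter; renilla luciferase normalised transfection and viability. Compounds applied 24 h in 5% lipid-reduced FCS; firefly/renilla ratio plotted against concentration.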
(In general: In a reporter assay the amount or activity of a reporter protein is the signal.)

Test [2] relates to IL-17 production by CD4 T cells. The test can be described thus: Human Th17 Assay (IL-17 production by CD4 T cells under Th17 differentiation conditions). It counts as cell-based. The settings on record: 3 days, IL-17 in supernatant. The protocol: The human Th17 assay tests the effect of RORγt modulatory compounds on IL-17 production by CD4 T cells under conditions which favor Th17 differentiation. Total CD4^+ T cells were isolated from the peripheral blood mononuclear cells (PBMC) of healthy donors using a CD4^+ T cell isolation kit II, following the manufacturer's instructions (Miltenyi Biotec). […] 50 µL of compound at titrated concentrations in DMSO were added into each well at final DMSO concentration at 0.2%. Cells were incubated for 1 hour, then 50 µL of Th17 cell differentiation medium was added to each well. The final concentrations of antibodies and cytokines (R&D Systems) in differentiation medium were: 3x10^6/mL anti-CD3/CD28 beads (prepared using human T cell activation/expansion kit, Miltenyi Biotec), 10 µg/mL anti-IL4, 10 µg/mL anti-IFNγ, 10 ng/mL […], 10 ng/mL IL23, 50 ng/mL IL6, 3 ng/mL TGFβ and 20 U/mL IL2. Cells were cultured at 37 °C and 5% CO2 for 3 days. Supernatants were collected and the accumulated IL-17 in culture was measured by using MULTI-SPOT® Cytokine Plate following manufacture's instruction (Meso Scale Discovery). The plate was read using Sector Imager 6000, and IL-17 concentration was extrapolated from the standard curve. The IC50s were determined by GraphPad.

For test [3], the target named is T2, wild type human RORγt ligand binding domain (RORγt LBD) (Homo sapiens, UniProt P51449).
T2 construct: His-tag (N); TurboTEV protease cleavage site (ENLYFQG) (N); made in house; host or cells: E. coli (pHIS1, modified pET expression vector)
T2 sequence (P51449 269-508 limits assumed): T1 sequence (P51449 269-508 limits assumed)
The test can be described thus: RORγt ThermoFluor® Assay (thermal shift, binding affinity). The settings on record: pH 7.0, estimated from concentration response curves. In outline:
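Thermal shift assay on 0.065 mg/mL RORγt LBD with 60 µM 1,8-ANS in 100 mM Hepes pH 7.0, 10 mM NaCl, 2.5 mM GSH, 0.002% Tween-20. Heated at 1 °C/min, fluorescence read at 500 nm.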

Where a name gives a salt, the structure may show the parent alone.

Turning to `Cc1cc(C(O)(c2ccc(C(F)(F)F)nc2)c2cncn2C)cc2c(C#N)c(-c3ccccc3)c(C#N)nc12` (single isomer, unassigned) [Example 25c, 6-(Hydroxy(1-methyl-1H-imidazol-5-yl)(6-(trifluoromethyl)pyridin-3-yl)methyl)-8-methyl-3-phenylquinoline-2,4-dicarbonitrile], the “RORγt reporter Assay, % inhibition @ 6 µM” value in test [1] was 95%. Also, the IC50 in test [1] amounted to 160 nM; in test [2] (Homo sapiens, CD4+ T, 72 h), 160 nM. Moreover, the Kd in test [3] is 61 nM.
With `COc1c(-c2ccccc2)c(C(F)(F)F)nc2ccc(C(O)(c3ccc(Cl)cc3)c3cncn3C)cc12` (single isomer, unassigned) [Example 33c, (4-Chlorophenyl)(4-methoxy-3-phenyl-2-(trifluoromethyl)quinolin-6-yl)(1-methyl-1H-imidazol-5-yl)methanol], in test [1], the “RORγt reporter Assay, % inhibition @ 6 µM” value is on record as 99% and the IC50 was 130 nM. Moreover, in test [2] (Homo sapiens, CD4+ T, 72 h), the IC50 turned out to be 290 nM. Moreover, the Kd in test [3] was 77 nM.
Taken in the same sequence, the figures for `CC(=O)N1CCC(C(O)(c2ccc3nc(C(F)(F)F)c(-c4ccccc4)c(Cl)c3c2)c2cncn2C)CC1` (single isomer, unassigned) [Example 34c, 1-(4-((4-Chloro-3-phenyl-2-(trifluoromethyl)quinolin-6-yl)(hydroxy)(1-methyl-1H-imidazol-5-yl)methyl)piperidin-1-yl)ethanone] were 96%, 270 nM, 260 nM and 100 nM.
On to `COc1nc2ccc(C(O)(c3cnnn3C)c3cnc(C)n3C)cc2c(Cl)c1-c1ccccc1` (single isomer, unassigned) [Example 41b, (4-Chloro-2-methoxy-3-phenylquinolin-6-yl)(1,2-dimethyl-1H-imidazol-5-yl)(1-methyl-1H-1,2,3-triazol-5-yl)methanol], for which the IC50 in test [1] was found to be 8.6 nM; in test [2], 7 nM. In addition, in test [1], the inhibition at 6 µM is 102%. In test [3], the Kd was 1.4 nM.
Take `COc1nc2ccc(C(O)(c3cnnn3C)c3cnc(C)n3C)cc2c(Cl)c1-c1ccccc1` (single isomer, unassigned) [Example 41c, (4-Chloro-2-methoxy-3-phenylquinolin-6-yl)(1,2-dimethyl-1H-imidazol-5-yl)(1-methyl-1H-1,2,3-triazol-5-yl)methanol]: in test [1], the “RORγt reporter Assay, % inhibition @ 6 µM” value is given as 102% and the IC50 stood at 270 nM. In addition, it took 210 nM to reach half-maximal inhibition in test [2] (IC50). The Kd in test [3] was 6.5 nM.
For the molecule `Cc1nc(C)c(C(O)(c2ccc3nc(C#N)c(-c4ccccc4)c(C#N)c3c2)c2cnnn2C)s1` (single isomer, unassigned) [Example 47c, 6-((2,4-Dimethylthiazol-5-yl)(hydroxy)(1-methyl-1H-1,2,3-triazol-5-yl)methyl)-3-phenylquinoline-2,4-dicarbonitrile], in test [1], the “RORγt reporter Assay, % inhibition @ 6 µM” value was determined as 100%. In addition, the IC50 in test [1] came to 25 nM; in test [2] (Homo sapiens, CD4+ T, 72 h) it was 54 nM. Besides, in test [3], the Kd is 1.9 nM.
Turning to `COc1nc2ccc(C(O)(c3ccc(C(F)(F)F)nc3)c3cncn3C)cc2c(Cl)c1-c1cncnc1` (stereo not shown) [Example 10, (4-Chloro-2-methoxy-3-pyrimidin-5-ylquinolin-6-yl)(1-methyl-1H-imidazol-5-yl)[6-(trifluoromethyl)pyridin-3-yl]methanol•TFA], in test [1], the IC50 came to 320 nM and the inhibition at 6 µM worked out at 89%. In test [2] (Homo sapiens, CD4+ T, 72 h), this molecule yielded an IC50 of 1500 nM. The Kd in test [3] was 200 nM.
On the same counts, the results for `COc1nc2ccc(C(O)(c3ccc(C(F)(F)F)nc3)c3cncn3C)cc2c(Cl)c1-c1ccc(C#N)cc1` (stereo not shown) [Example 16, 4-(4-Chloro-6-{hydroxy(1-methyl-1H-imidazol-5-yl)[6-(trifluoromethyl)pyridin-3-yl]methyl}-2-methoxyquinolin-3-yl)benzonitrile•TFA] are 200 nM, 86%, 81 nM and 27 nM.
For `Cn1cncc1C(O)(c1ccc2nc(C(F)(F)F)c(-c3ccccc3)c(Cl)c2c1)c1ccccn1` (stereo not shown) [Example 61, (4-Chloro-3-phenyl-2-(trifluoromethyl)quinolin-6-yl)(1-methyl-1H-imidazol-5-yl)(pyridin-2-yl)methanol•TFA], in test [1], the IC50 is 130 nM and the inhibition at 6 µM was 105%. Moreover, the IC50 in test [2] (Homo sapiens, CD4+ T, 72 h) came to 480 nM. The Kd in test [3] is 450 nM.
Consider `OC(c1ccccc1)(c1ccncc1)c1ccc2nc(Cl)c(-c3ccccc3Cl)c(Cl)c2c1` (stereo not shown) [Example 73, (2,4-Dichloro-3-(2-chlorophenyl)quinolin-6-yl)(phenyl)(pyridin-4-yl)methanol], for which, in test [1], the IC50 came out at 700 nM and the inhibition at 6 µM came to 80%. The half-inhibitory concentration (IC50) in test [2] (Homo sapiens, CD4+ T, 72 h) is approximately 6000 nM. Further, the Kd in test [3] was 20000 nM.
